Where “and” joins values, the source holds several entries; their conditions need not be identical. Equal values may be shown once. Read-outs that look alike come from different tables or passages of the source.

Test [1] addresses SNA (Sambucus nigra, UniProt Q41358). Briefly: biochemical. Type of test: binding. Conditions: apparent Kd by ITC (Literature). A general note: Isothermal titration calorimetry measures the heat released or taken up as one component is titrated into another.
In test [2] the target is Siglec-7. The settings on record: ITC; cited from earlier work.
The target of test [3] is SNA (Sambucus nigra agglutinin) (Sambucus nigra, UniProt Q41358). Description: biochemical. The format is binding. Conditions: for Kd: Kd (COIN-CaR-nMS).
The target in test [4] is Sig7-Fc (Homo sapiens, UniProt Q9Y286). Briefly: COIN-CaR-nMS. The format is binding. Further details: Siglec 7-Fc (Sig7-Fc, residue 1–345, MW 150 kDa); His6 (C); made in house; host or cells: wild-type CHO cells.
Test [5] has as its target T1, CD22-Fc (Homo sapiens, UniProt P20273).
T1 construct: His6 (C); made in house; host or cells: wild-type CHO cells
T1 sequence (P20273 20-332 limits assumed): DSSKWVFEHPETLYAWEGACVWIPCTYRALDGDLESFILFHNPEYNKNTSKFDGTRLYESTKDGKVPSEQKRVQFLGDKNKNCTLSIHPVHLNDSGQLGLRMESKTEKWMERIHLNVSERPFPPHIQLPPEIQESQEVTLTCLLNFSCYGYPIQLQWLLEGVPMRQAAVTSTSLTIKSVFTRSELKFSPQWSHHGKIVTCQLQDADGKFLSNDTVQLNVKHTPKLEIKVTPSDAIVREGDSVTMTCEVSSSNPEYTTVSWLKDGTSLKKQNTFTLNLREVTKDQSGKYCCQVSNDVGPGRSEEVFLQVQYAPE
Description: COIN-CaR-nMS. The format is binding. Conditions: N-glycan natural libraries and G21; pH 6.9.

The subject of test [6] is GFP-encoding SARS-CoV-2 pseudotyped virus, ACE2+ HEK293 cells. Type of test: cell-based.
Test [7] deals with SARS-CoV-2 (hCoV-19/Canada/ON-VIDO-01/2020), ACE2+ HEK293 cells. The format is cell-based.

SNA (Sambucus nigra agglutinin), sequence (Q41358 309-570 limits assumed): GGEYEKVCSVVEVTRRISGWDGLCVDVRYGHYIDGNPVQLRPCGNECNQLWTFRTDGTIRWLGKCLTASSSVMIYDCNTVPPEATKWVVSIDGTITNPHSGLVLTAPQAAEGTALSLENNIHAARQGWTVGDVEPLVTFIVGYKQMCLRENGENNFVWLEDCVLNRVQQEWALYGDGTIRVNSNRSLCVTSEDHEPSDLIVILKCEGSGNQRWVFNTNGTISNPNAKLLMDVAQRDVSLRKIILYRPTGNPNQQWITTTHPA
SNA (Sambucus nigra agglutinin), sequence (Q41358 29-289 partner limits assumed): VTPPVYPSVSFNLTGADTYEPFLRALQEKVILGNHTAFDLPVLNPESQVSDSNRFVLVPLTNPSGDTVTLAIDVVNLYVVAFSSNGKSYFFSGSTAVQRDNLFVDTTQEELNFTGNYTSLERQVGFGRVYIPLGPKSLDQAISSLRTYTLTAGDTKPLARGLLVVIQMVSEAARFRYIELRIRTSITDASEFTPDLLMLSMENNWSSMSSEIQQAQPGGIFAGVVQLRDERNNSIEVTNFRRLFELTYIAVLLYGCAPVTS
Sig7-Fc, sequence (Q9Y286 19-345): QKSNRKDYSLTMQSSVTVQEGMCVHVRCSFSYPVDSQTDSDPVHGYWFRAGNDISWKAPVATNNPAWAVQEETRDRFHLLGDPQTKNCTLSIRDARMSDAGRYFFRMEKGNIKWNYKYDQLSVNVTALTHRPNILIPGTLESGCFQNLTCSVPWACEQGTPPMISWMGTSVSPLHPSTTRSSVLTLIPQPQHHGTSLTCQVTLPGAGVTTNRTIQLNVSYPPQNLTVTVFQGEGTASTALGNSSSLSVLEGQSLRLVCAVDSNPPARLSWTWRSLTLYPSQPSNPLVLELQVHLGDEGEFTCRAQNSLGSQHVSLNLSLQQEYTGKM
SNA, sequence (Q41358 309-570 limits assumed): as the sequence (Q41358 309-570 limits assumed) above
SNA, sequence (Q41358 29-289 partner limits assumed): as the sequence (Q41358 29-289 partner limits assumed) above

With `CC(=O)N[C@H]1[C@H]([C@H](O)[C@H](O)CO)O[C@@](OC[C@H]2O[C@@H](O[C@H]3[C@H](O)[C@@H](O)C(O)O[C@@H]3CO)[C@H](O)[C@@H](O)[C@H]2O)(C(=O)O)C[C@@H]1O` (stereo partly drawn) [Glycan G21, α-D-Neu5Ac-(2→6)-β-D-Gal-(1→4)-D-Glc], the Kd in test [1] is 1.98 µM and 2 µM; in test [2], 240 µM; in test [3] it was 1.6 ± 0.4 µM; in test [3] (two ligands) it was 2 µM and 1.5 µM and 3.3 µM and 1.7 µM and 1.6 µM and 1.8 µM; in test [4] (G21 0.5 μM and G29 30 μM, read-out: Kd (COIN-CaR-nMS), two ligands), 284 ± 70 µM; in test [4] (G21 1.0 μM and G29 30 μM, read-out: Kd (COIN-CaR-nMS), two ligands), 239 ± 50 µM. The Kd in test [4] (G21 5 μM and G29 30 μM, read-out: Kd (COIN-CaR-nMS), two ligands) turned out to be 366 ± 10 µM; in test [4] (G21 10 μM and G29 30 μM, read-out: Kd (COIN-CaR-nMS), two ligands) it was 249 ± 20 µM; in test [4] (N-glycan natural libraries and purified oligosaccharides, pH 6.9, read-out: Kd), 236 µM; in test [5], 40 µM. The “fold weaker ligand than G23” value in test [3] was determined as 3 fold.
For the molecule `O=C1N[C@@H]2[C@@H](O)[C@@H](O)[C@H](O)[C@@H](CO)N2C1=O` [kifunensine], in test [6], the “infection by pseudotyped virus (%GFP+ cells)” value is “decreased significantly”. Moreover, in test [7], the “infection by authentic virus (viral titers, PFU)” value is recorded as “concentration-dependent decrease in infection”.

Values taken from PMC10303200 (ACS Central Science, 2023).
